PubChem BioAssay (NCI)
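Interpolation was linear, between the two tested concentrations surrounding the appropriate level; five concentrations were tested over 48 hours in 96-well plates. GI50 marks 50% less growth. TGI denotes the concentration required for complete inhibition of growth.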

Tests used:
Assay in all cases: inhibition of tumour cell growth, NCI panel, 48 h
[1] = test system: 786-0 renal
[2] = test system: A498 renal
[3] = test system: A549 NSCLC
[4] = test system: ACHN renal
[5] = test system: CCRF-CEM leukemia
[6] = test system: COLO 205 colon
[7] = test system: DLD-1 colon
[8] = test system: DMS 273 small cell lung
[9] = test system: EKVX NSCLC
[10] = test system: HCC-2998 colon
[11] = test system: HCT-116 colon
[12] = test system: HCT-15 colon
[13] = test system: HL-60(TB) leukemia
[14] = test system: HOP-62 NSCLC
[15] = test system: HOP-92 NSCLC
[16] = test system: HT29 colon
[17] = test system: IGROV1 ovarian
[18] = test system: K-562 leukemia
[19] = test system: KM12 colon
[20] = test system: KM20L2 colon
[21] = test system: LOX IMVI melanoma
[22] = test system: LXFL 529 NSCLC
[23] = test system: M14 melanoma
[24] = test system: MALME-3M melanoma
[25] = test system: MOLT-4 leukemia
[26] = test system: NCI-H23 lung
[27] = test system: NCI-H460 lung
[28] = test system: NCI-H522 lung
[29] = test system: OVCAR-3 ovarian
[30] = test system: OVCAR-4 ovarian
[31] = test system: OVCAR-5 ovarian
[32] = test system: OVCAR-8 ovarian
[33] = test system: RPMI-8226 leukemia
[34] = test system: SF-268 CNS
[35] = test system: SF-295 CNS
[36] = test system: SF-539 CNS
[37] = test system: SK-MEL-2 melanoma
[38] = test system: SK-MEL-28 melanoma
[39] = test system: SK-MEL-5 melanoma
[40] = test system: SK-OV-3 ovarian
[41] = test system: SN12C renal
[42] = test system: SNB-19 CNS
[43] = test system: SNB-75 CNS
[44] = test system: SNB-78 CNS
[45] = test system: SW-620 colon
[46] = test system: TK-10 renal
[47] = test system: U251 CNS
[48] = test system: UACC-257 melanoma
[49] = test system: UACC-62 melanoma
[50] = test system: UO-31 renal
[51] = test system: CAKI-1 renal
[52] = test system: HOP-18 NSCLC
[53] = test system: M19-MEL melanoma
[54] = test system: NCI-H226 lung
[55] = test system: RXF 393 renal
[56] = test system: RXF-631 renal
[57] = test system: SR leukemia
[58] = test system: DMS 114 small cell lung
[59] = test system: XF 498 CNS

C/C=C/C(=O)[O-].N.N.N.N.N.[Co+3].[O-][Cl+3]([O-])([O-])[O-]
GI50 [1]: > 100 µM | TGI [1]: > 100 µM | GI50 [2]: > 100 µM | TGI [2]: > 100 µM | GI50 [3]: > 100 µM | TGI [3]: > 100 µM | GI50 [4]: > 100 µM | TGI [4]: > 100 µM | GI50 [5]: > 100 µM | TGI [5]: > 100 µM | GI50 [6]: > 100 µM | TGI [6]: > 100 µM | GI50 [7]: > 100 µM | TGI [7]: > 100 µM | GI50 [8]: > 100 µM | TGI [8]: > 100 µM | GI50 [9]: > 100 µM | TGI [9]: > 100 µM | GI50 [10]: > 100 µM | TGI [10]: > 100 µM | GI50 [11]: > 100 µM | TGI [11]: > 100 µM | GI50 [12]: > 100 µM | TGI [12]: > 100 µM | GI50 [13]: > 100 µM | TGI [13]: > 100 µM | GI50 [14]: > 100 µM | TGI [14]: > 100 µM | GI50 [15]: > 100 µM | TGI [15]: > 100 µM | GI50 [16]: > 100 µM | TGI [16]: > 100 µM | GI50 [17]: > 100 µM | TGI [17]: > 100 µM | GI50 [18]: > 100 µM | TGI [18]: > 100 µM | GI50 [19]: > 100 µM | TGI [19]: > 100 µM | GI50 [20]: > 100 µM | TGI [20]: > 100 µM | GI50 [21]: > 100 µM | TGI [21]: > 100 µM | GI50 [22]: > 100 µM | TGI [22]: > 100 µM | GI50 [23]: > 100 µM | TGI [23]: > 100 µM | GI50 [24]: > 100 µM | TGI [24]: > 100 µM | GI50 [25]: > 100 µM | TGI [25]: > 100 µM | GI50 [26]: > 100 µM | TGI [26]: > 100 µM | GI50 [27]: > 100 µM | TGI [27]: > 100 µM | GI50 [28]: > 100 µM | TGI [28]: > 100 µM | GI50 [29]: > 100 µM | TGI [29]: > 100 µM | GI50 [30]: > 100 µM | TGI [30]: > 100 µM | GI50 [31]: > 100 µM | TGI [31]: > 100 µM | GI50 [32]: > 100 µM | TGI [32]: > 100 µM | GI50 [33]: > 100 µM | TGI [33]: > 100 µM | GI50 [34]: > 100 µM | TGI [34]: > 100 µM | GI50 [35]: > 100 µM | TGI [35]: > 100 µM | GI50 [36]: > 100 µM | TGI [36]: > 100 µM | GI50 [37]: > 100 µM | TGI [37]: > 100 µM | GI50 [38]: > 100 µM | TGI [38]: > 100 µM | GI50 [39]: > 100 µM | TGI [39]: > 100 µM | GI50 [40]: > 100 µM | TGI [40]: > 100 µM | GI50 [41]: > 100 µM | TGI [41]: > 100 µM | GI50 [42]: > 100 µM | TGI [42]: > 100 µM | GI50 [43]: 84.7 µM | TGI [43]: > 100 µM | GI50 [44]: > 100 µM | TGI [44]: > 100 µM | GI50 [45]: > 100 µM | TGI [45]: > 100 µM | GI50 [46]: > 100 µM | TGI [46]: > 100 µM | GI50 [47]: > 100 µM | TGI [47]: > 100 µM | GI50 [48]: > 100 µM | TGI [48]: > 100 µM | GI50 [49]: > 100 µM | TGI [49]: > 100 µM | GI50 [50]: > 100 µM | TGI [50]: > 100 µM

CC1=NN(C(=O)c2cc(Cl)cc([N+](=O)[O-])c2)C(=O)C1N=Nc1ccccc1C(=O)O (stereo unspecified)
TGI [1]: > 100 µM | TGI [2]: > 100 µM | TGI [3]: > 100 µM | TGI [4]: > 100 µM | TGI [51]: > 100 µM | TGI [5]: > 100 µM | TGI [6]: > 100 µM | TGI [7]: > 100 µM | TGI [8]: > 100 µM | TGI [9]: > 100 µM | TGI [10]: > 100 µM | TGI [11]: > 100 µM | TGI [13]: > 100 µM | TGI [52]: > 100 µM | TGI [16]: > 100 µM | TGI [17]: > 100 µM | TGI [18]: > 100 µM | TGI [19]: > 100 µM | TGI [22]: > 100 µM | TGI [53]: > 100 µM | TGI [24]: > 100 µM | TGI [25]: > 100 µM | TGI [54]: > 100 µM | TGI [26]: > 100 µM | TGI [27]: > 100 µM | TGI [28]: > 100 µM | TGI [29]: > 100 µM | TGI [31]: > 100 µM | TGI [32]: > 100 µM | TGI [33]: > 100 µM | TGI [55]: > 100 µM | TGI [56]: > 100 µM | TGI [34]: > 100 µM | TGI [35]: > 100 µM | TGI [36]: > 100 µM | TGI [37]: > 100 µM | TGI [38]: > 100 µM | TGI [39]: > 100 µM | TGI [40]: > 100 µM | TGI [41]: > 100 µM | TGI [42]: > 100 µM | TGI [43]: > 100 µM | TGI [44]: > 100 µM | TGI [57]: > 100 µM | TGI [45]: > 100 µM | TGI [46]: > 100 µM | TGI [47]: > 100 µM | TGI [48]: > 100 µM | TGI [49]: > 100 µM | TGI [50]: > 100 µM

Cc1ccc(C)c2c1CCc1cc3ccccc3nc1-2
TGI [1]: > 100 µM | TGI [2]: > 100 µM | TGI [3]: > 100 µM | TGI [4]: > 100 µM | TGI [51]: > 100 µM | TGI [5]: > 100 µM | TGI [6]: > 100 µM | TGI [7]: > 100 µM | TGI [58]: > 100 µM | TGI [9]: > 100 µM | TGI [10]: > 100 µM | TGI [11]: > 100 µM | TGI [12]: > 100 µM | TGI [52]: > 100 µM | TGI [14]: > 100 µM | TGI [16]: > 100 µM | TGI [17]: > 100 µM | TGI [18]: > 100 µM | TGI [19]: > 100 µM | TGI [20]: > 100 µM | TGI [22]: > 100 µM | TGI [23]: > 100 µM | TGI [53]: > 100 µM | TGI [24]: > 100 µM | TGI [25]: > 100 µM | TGI [26]: > 100 µM | TGI [27]: > 100 µM | TGI [28]: > 100 µM | TGI [29]: > 100 µM | TGI [30]: > 100 µM | TGI [31]: > 100 µM | TGI [32]: > 100 µM | TGI [33]: > 100 µM | TGI [34]: > 100 µM | TGI [35]: > 100 µM | TGI [36]: > 100 µM | TGI [37]: > 100 µM | TGI [38]: > 100 µM | TGI [39]: > 100 µM | TGI [40]: > 100 µM | TGI [41]: > 100 µM | TGI [42]: > 100 µM | TGI [43]: > 100 µM | TGI [44]: > 100 µM | TGI [45]: > 100 µM | TGI [46]: > 100 µM | TGI [47]: > 100 µM | TGI [48]: > 100 µM | TGI [49]: > 100 µM | TGI [50]: > 100 µM | TGI [59]: > 100 µM
